# Measurements taken from patent publication US20080119513A1, “Sulfonamide Derivative Selectively Inhibiting Mmp-13” (priority 2004, published 2008).
# Experiments:
# MMP-2 = molecular target: T1, MMP-2 (Homo sapiens, UniProt P08253); test: Assay for inhibitory activities on MMPs (fluorogenic peptide substrate), MMP-2; assay type: biochemical
# T1 sequence (P08253 110-660): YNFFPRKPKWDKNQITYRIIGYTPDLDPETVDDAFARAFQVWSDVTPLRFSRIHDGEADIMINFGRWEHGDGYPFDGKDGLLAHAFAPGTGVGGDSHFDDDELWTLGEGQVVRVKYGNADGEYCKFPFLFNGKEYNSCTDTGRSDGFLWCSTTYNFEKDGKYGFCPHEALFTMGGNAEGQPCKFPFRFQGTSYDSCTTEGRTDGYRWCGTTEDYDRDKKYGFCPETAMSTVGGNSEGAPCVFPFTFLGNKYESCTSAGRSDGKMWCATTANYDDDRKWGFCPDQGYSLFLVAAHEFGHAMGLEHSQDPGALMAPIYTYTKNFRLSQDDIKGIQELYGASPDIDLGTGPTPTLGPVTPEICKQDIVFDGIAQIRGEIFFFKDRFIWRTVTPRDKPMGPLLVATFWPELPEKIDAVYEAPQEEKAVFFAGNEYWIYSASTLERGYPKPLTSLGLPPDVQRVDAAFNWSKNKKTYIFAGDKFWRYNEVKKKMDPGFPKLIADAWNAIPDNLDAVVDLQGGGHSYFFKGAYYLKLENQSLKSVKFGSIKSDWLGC
# Method in brief: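 Human MMP-2 activity measured with fluorogenic MOCAc-Pro-Leu-Gly-Leu-A2Pr(DNP)-Ala-Arg-NH2 substrate. Percent inhibition derived from fluorescence with and without enzyme and inhibitor, corrected for substrate and inhibitor background. IC50 taken as concentration giving 50% inhibition.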
# MMP-8 = molecular target: T2, MMP-8 (Homo sapiens, UniProt P22894); test: Assay for inhibitory activities on MMPs (fluorogenic peptide substrate), MMP-8; assay type: biochemical
# T2 construct: In regard to MMP-8, catalytic domain (^99Phe˜^262Gly) was amplified with PCR; His-tag; enterokinase digestion-site
# T2 sequence (P22894 99-262): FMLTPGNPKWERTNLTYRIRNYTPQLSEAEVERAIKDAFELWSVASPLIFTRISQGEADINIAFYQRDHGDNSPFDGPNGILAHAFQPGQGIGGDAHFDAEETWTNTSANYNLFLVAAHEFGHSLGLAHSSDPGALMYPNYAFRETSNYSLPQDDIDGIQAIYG
# Method in brief: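 Human MMP-8 catalytic domain (Phe99–Gly262), His-tagged, E. coli-expressed, urea-solubilised, refolded. Fluorogenic substrate MOCAc-Pro-Leu-Gly-Leu-A2Pr(DNP)-Ala-Arg-NH2; fluorescence read with enzyme/inhibitor, substrate/inhibitor, enzyme-only and substrate-only wells. % inhibition = {1-(A−B)/(C−D)}×100; IC50 is concentration giving 50% inhibition.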
# MMP-9 = MMP-9 (Homo sapiens, UniProt P14780); test: Assay for inhibitory activities on MMPs (fluorogenic peptide substrate), MMP-9; assay type: biochemical
# Chain of MMP-9 (P14780 107-707): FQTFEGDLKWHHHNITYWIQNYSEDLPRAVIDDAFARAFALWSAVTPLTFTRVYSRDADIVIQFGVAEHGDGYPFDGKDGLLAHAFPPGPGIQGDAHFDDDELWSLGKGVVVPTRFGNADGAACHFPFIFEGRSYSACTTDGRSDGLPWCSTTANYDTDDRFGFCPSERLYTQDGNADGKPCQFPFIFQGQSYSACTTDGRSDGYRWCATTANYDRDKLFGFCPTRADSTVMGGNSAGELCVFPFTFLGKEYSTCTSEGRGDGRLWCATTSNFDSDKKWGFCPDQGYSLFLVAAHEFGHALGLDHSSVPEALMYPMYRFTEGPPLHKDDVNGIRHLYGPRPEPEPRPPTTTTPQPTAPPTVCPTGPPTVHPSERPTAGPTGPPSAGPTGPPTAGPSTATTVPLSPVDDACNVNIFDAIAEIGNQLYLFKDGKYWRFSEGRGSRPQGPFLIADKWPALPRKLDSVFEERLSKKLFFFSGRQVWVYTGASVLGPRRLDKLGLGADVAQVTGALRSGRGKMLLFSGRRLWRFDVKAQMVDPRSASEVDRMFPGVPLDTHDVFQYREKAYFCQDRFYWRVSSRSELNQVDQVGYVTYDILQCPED
# Method in brief: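 ProMMP-9 purified from TPA-stimulated HT1080 cells and activated with TPCK-trypsin, assayed with fluorogenic MOCAc-Pro-Leu-Gly-Leu-A2Pr(DNP)-Ala-Arg-NH2. Percent inhibition from fluorescence of reactions with and without enzyme and inhibitor; IC50 as concentration giving 50% inhibition.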
# MMP-12 = molecular target: T3, MMP-12 (Homo sapiens, UniProt P39900); test: Assay for inhibitory activities on MMPs (fluorogenic peptide substrate), MMP-12; assay type: biochemical
# T3 construct: In regard to MMP-12, catalytic domain (^100Phe˜^263Gly) was amplified with RT-PCR; His-tag; enterokinase digestion-site
# T3 sequence (P39900 100-263): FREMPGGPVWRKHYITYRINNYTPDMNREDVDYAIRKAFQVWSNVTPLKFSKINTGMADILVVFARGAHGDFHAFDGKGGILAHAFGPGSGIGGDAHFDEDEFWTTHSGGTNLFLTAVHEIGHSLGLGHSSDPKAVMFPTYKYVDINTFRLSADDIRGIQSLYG
# Method in brief: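 Refolded His-tagged human MMP-12 catalytic domain (Phe100–Gly263) expressed in E. coli, assayed with fluorogenic substrate MOCAc-Pro-Leu-Gly-Leu-A2Pr(DNP)-Ala-Arg-NH2. Percent inhibition calculated from fluorescence with and without enzyme and inhibitor, corrected for inhibitor-only and substrate-only blanks; IC50 is concentration giving 50% inhibition.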
# Rat osteoarthritis model = test: Inhibition of disease progression in the rat osteoarthritis model; assay type: in vivo; conditions: female SD rats, medial meniscectomy and collateral ligament transection; 10 mg/kg orally twice daily for 6 weeks
# Experimental: Rat osteoarthritis model was prepared according to the procedure reported by Meacock et al. (J. Exp. Path. 71, 279-293, 1990), by medial meniscectomy and collateral ligament transection on the right knee of 12 weeks old female SD rats (Charles River Japan). 0.5% methylcellulose or compounds (II-3) or (III-11) (10 mg/kg) were orally administered twice daily from the following day of the surgery for 6 weeks.
# On the next day of final administration, tibial plateaus were removed. The surfaces of the tibial plateau were stained with India ink (Kuretake), and then photographed using a digital camera (Nikon). The progressive level of OA lesion was scored using a photographic image thereof.
# MMP-13 = molecular target: T4, MMP-13 (Homo sapiens, UniProt P45452); test: Assay for inhibitory activities on MMPs (fluorogenic peptide substrate), MMP-13; assay type: biochemical
# T4 construct: catalytic domain (^104Tyr˜^267Gly) was amplified with RT-PCR; His-tag; enterokinase digestion-site
# Method in brief: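 Catalytic domain cloned from IL-1/TNF-stimulated SW1353 cells, His-tagged and expressed in E. coli, then refolded from urea. Activity read by fluorescence on the MOCAc peptide substrate. IC50 taken from % inhibition = {1-(A-B)/(C-D)}×100, with blanks lacking enzyme and/or inhibitor.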
IC50 (MMP-2) [nM],IC50 (MMP-8) [nM],IC50 (MMP-9) [nM],IC50 (MMP-12) [nM],IC50 (MMP-13) [nM],SMILES,"inhibitory activities (progressive level of OA lesion, scored) (Rat osteoarthritis model) [%]"
> 10000,> 10000,> 10000,> 10000,136,O=C(Nc1ccc(-c2ccc(S(=O)(=O)N[C@H](Cc3ccccc3)C(=O)O)cc2)cc1)c1cc2ccccc2s1 [VI-47],
> 10000,> 10000,> 10000,> 10000,100,COc1ccc(C[C@H](NS(=O)(=O)c2ccc(-c3ccc(C#Cc4ccc5cc(OC)ccc5c4)cc3)cc2)C(=O)O)cc1 [III-48],
> 10000,> 10000,> 10000,> 10000,19.3,COc1ccc2cc(C#Cc3ccc(-c4ccc(S(=O)(=O)N[C@@H](CO)C(=O)O)cc4)cc3)ccc2c1 [III-45],
292,> 10000,> 10000,> 10000,22.2,O=C(Nc1ccc(-c2ccc(S(=O)(=O)N[C@H](Cc3ccccc3)C(=O)O)s2)cc1)c1ccc2ccccc2c1 [VI-51],
239,> 10000,> 10000,1100,32.6,COc1ccc(C(=O)Nc2ccc(-c3ccc(S(=O)(=O)N[C@H](Cc4ccccc4)C(=O)O)cc3)cc2)cc1 [VI-3],
327,13.1,> 10000,20.2,4.32,CC(C)C[C@H](NS(=O)(=O)c1ccc(-c2ccc(C#Cc3ccc4ccccc4c3)cc2)cc1)C(=O)O [III-7],
660,623,> 10000,1230,50.1,COc1cccc(C(=O)Nc2ccc(-c3ccc(S(=O)(=O)N[C@H](Cc4ccccc4)C(=O)O)cc3)cc2)c1 [VI-5],
241,158,> 10000,98.8,10,CC(C)(C)[C@H](NS(=O)(=O)c1ccc(-c2ccc(NC(=O)c3cc4ccccc4s3)cc2)cc1)C(=O)O [VI-49],
> 10000,7680,> 10000,> 10000,225,O=C(O)[C@@H](CC1CCCCC1)NS(=O)(=O)c1ccc(-c2ccc(C#Cc3ccc4ccccc4c3)cc2)cc1 [III-15],
> 10000,> 10000,> 10000,7970,65.1,O=C(Nc1ccc(-c2ccc(S(=O)(=O)N[C@@H](Cc3ccccc3)C(=O)O)cc2)cc1)c1ccc2ccccc2c1 [VI-36],
> 10000,> 10000,> 10000,> 10000,21.4,O=C(Nc1ccc(-c2ccc(S(=O)(=O)N[C@H](Cc3ccccc3)C(=O)O)cc2)cc1)c1ccc2ccccc2c1 [VI-10],

SMILES,IC50 (MMP-2) [nM],IC50 (MMP-8) [nM],IC50 (MMP-9) [nM],IC50 (MMP-12) [nM],IC50 (MMP-13) [nM],"inhibitory activities (progressive level of OA lesion, scored) (Rat osteoarthritis model) [%]"
O=C(O)[C@@H](Cc1ccccc1)NS(=O)(=O)c1ccc(-c2ccc(C#Cc3ccc4ccccc4c3)cc2)cc1 [III-11],163,128,> 10000,2000,,77.2
